Results published in PubChem BioAssay AID449750 (Broad Institute, 2010).
Values joined by “and” are separate entries in the source; they are usually repeats but may differ in a detail not shown here. Equal values may be shown once. Active and inactive are the calls of the source. The rule behind the calls is not given here.

Assay: non-covalent RecA intein splicing inhibitors, dose response, biochemical, cell-free, fluorescence, secondary screen (AID 449750)

Row | Structure (SMILES) | AC50
1 | CC(C)C(=O)N1CCN(c2nc(-c3ccccc3)c3c(c2C#N)CCCC3)CC1 | 9.83 µM
2 | CC1=NN(c2ccc(C)c(C)c2)C(=O)C1C(c1cccc(O)c1)C1C(=O)N(c2ccc(C)c(C)c2)N=C1C (stereo unspecified) | 3.38 µM
3 | O=C1c2[nH]nc(-c3ccccc3O)c2C(c2cccc(Cl)c2)N1Cc1ccco1 (stereo unspecified) | > 38 µM (inactive)
4 | Cc1ccc(C2CC(c3cccs3)=NN2C(=O)CSC2=NCCS2)cc1 (stereo unspecified) | 9.96 µM
5 | Cc1cc2nc3ccc(=[N+](C)C)cc-3sc2cc1N | 13.1 µM
6 | CCOc1ccc2c(c1)-c1c(ssc1=S)C(C)(C)N2 | > 38 µM (inactive)
7 | O=C(Oc1ccc2ccccc2c1)c1ccco1 | > 38 µM (inactive)
8 | Cc1nn(-c2ccccc2)c2c1C(c1ccco1)C(C#N)=C(N)O2 (stereo unspecified) | 14 µM
9 | O=C1C(Cl)=C(Nc2ccc(O)cc2)C(=O)c2ccccc21 | 2.7 µM
10 | CCOC(=O)C(CC)Sc1ncnc2c1nnn2-c1ccc(F)cc1 (stereo unspecified) | > 38 µM (inactive)
11 | O=C1C(Cl)=C(N2CCOCC2)C(=O)N1c1ccccc1Cl | > 38 µM (inactive)
12 | CC1=NN(c2ccccc2)C(=O)C1 | 3.24 µM
13 | CN1c2ccccc2C(C)(C)C12C=Nc1c(cc(N3CCOCC3)c3ccccc13)O2 (stereo unspecified) | > 38 µM (inactive)
14 | Cc1ccc(N2C(=O)C(Cl)=C(NCCO)C2=O)c(C)c1 | > 38 µM (inactive)
15 | O=C(Oc1ccc(-c2nnco2)cc1)c1ccco1 | > 38 µM (inactive)
16 | Cc1[nH][nH]c(=O)c1C(c1cc([N+](=O)[O-])ccc1O)c1c(C)[nH][nH]c1=O | 14.6 µM
17 | COc1ccc(Nc2nc(N3CCCCC3)nc3ccccc23)c(OC)c1 | > 38 µM (inactive)
18 | CC1=NN(c2ccccc2)C(=O)/C1=C\c1ccc(Oc2ccc([N+](=O)[O-])cc2[N+](=O)[O-])cc1 | 3.48 µM
19 | CCCCCCCCCCOC(=O)Cn1c(COc2ccc(OC)cc2)[n+](C)c2ccccc21 | 8.31 µM and 8.42 µM
20 | C/C(CC(=O)Nc1ccc(Cl)cn1)=N\NC(=O)Cc1cccs1 | > 38 µM (inactive)
21 | Cc1ccc(NC(=O)c2cnc(SCC(=O)NCC3CCCO3)n(C)c2=O)cc1 (stereo unspecified) | > 38 µM (inactive)
22 | N#CC1=C(N)Oc2n[nH]c(-c3cccs3)c2C1c1ccsc1 (stereo unspecified) | 3.98 µM
23 | c1ccc(-c2nnc(-c3ccccn3)nc2NC2CCCCC2)cc1 | 7.98 µM
24 | COc1ccc(C(C[N+](=O)[O-])c2c(C)[nH]n(-c3ccccc3)c2=O)cc1 (stereo unspecified) | 2.8 µM
25 | CCOC(=O)CSc1nnc(NCC(=O)OC(C)C)c(=O)[nH]1 | > 38 µM (inactive)
26 | COc1nc(NC(C)C)nc(N(C#N)CN2C(=O)c3ccccc3S2(=O)=O)n1 | > 38 µM (inactive)

Row | Structure (SMILES) | AC50
27 | CC(=O)c1cccc2c(O)c(C3=Nc4ccccc4C3=O)[nH]c12 | 34.6 µM
28 | CCOC(=O)c1nnc(-c2cccs2)nc1Oc1ccc(Cl)cc1 | > 38 µM (inactive)
29 | COC(=O)c1ccc(NC(=O)c2nc(S(=O)(=O)Cc3cccc(C)c3)ncc2Cl)cc1 | 17.1 µM
30 | CC(=O)Oc1c(/C=C(\C#N)C(N)=O)[nH]c2ccccc12 | > 38 µM (inactive)
31 | CC1(C)Nc2ccc(O)cc2-c2c1ssc2=S | > 38 µM (inactive)
32 | O=C1CCN(N=Nc2cccc(Cl)c2)N1 | > 38 µM (inactive)
33 | COc1cc(C(c2c(C)[nH][nH]c2=O)c2c(C)[nH][nH]c2=O)ccc1OS(=O)(=O)c1ccc(C)cc1 | 8.13 µM
34 | COc1ccc(-c2nnc(Sc3nc4ccccc4o3)c3ccccc23)cc1 | 18.8 µM
35 | CCOC(=O)c1c(NC(=O)/C=C/C(=O)O)sc(C)c1-c1ccc(F)cc1 | 18 µM
36 | O=C(O)c1ccc2c3c(ncnc13)-c1ccccc1C2=O | 7.47 µM
37 | CCCc1[nH]nc2c1C(c1ccncc1)C(C#N)=C(N)O2 (stereo unspecified) | > 38 µM (inactive)
38 | O=[N+]([O-])c1ccc(N2CCOCC2)c2ccncc12 | > 38 µM (inactive)
39 | Cc1ccc(S(=O)(=O)/N=C2\C=C(Nc3cccc(C(=O)O)c3)C(=O)c3ccccc32)c(C)c1 | > 38 µM (inactive)
40 | COC1=CC(=O)C(O)=C(CCCCCCC/C=C/CCCCCCCC2=C(O)C(=O)C=C(OC)C2=O)C1=O | 4.64 µM
41 | Cc1[nH]nc2c1C1(CCN(C(=O)OCc3ccccc3)CC1)C(C#N)=C(N)O2 | > 38 µM (inactive)
42 | COc1cc(C2(c3ccc(O)c(OC)c3)C(=O)Nc3c(Br)cc(Br)cc32)ccc1O | 21.5 µM
43 | COC(CN(C(=O)CCl)C(C(=O)NC1CCCCC1)c1ccc(Cl)cc1)OC (stereo unspecified) | 7.61 µM
44 | O=C(c1ccco1)c1coc2c1cc(O)c1ccccc12 | 26.2 µM
45 | COc1ccc(CC2=CC(=O)c3ccccc3C2=O)cc1 | 6.95 µM
46 | Cc1ccc(NC(=O)CCl)cc1S(=O)(=O)N1CCCCCC1 | 10 µM
47 | Cc1ccc(S(=O)(=O)Oc2ccc(C(c3c(C)[nH][nH]c3=O)c3c(C)[nH][nH]c3=O)cc2)cc1 | 2.22 µM
48 | Cc1c(Cl)cccc1NC(=O)CSCc1cc(=O)[nH][nH]1 | 33.3 µM
49 | Cn1cnc([N+](=O)[O-])c1Sc1ccc(C(C)(C)C)cc1 | > 38 µM (inactive)
50 | N=c1c2c(ncn1Cc1ccco1)Oc1ccc3ccccc3c1C2c1ccccc1 (stereo unspecified) | 13.1 µM
51 | COc1ccc(C2=NN(c3ccccc3)C(=O)/C2=C\c2ccc(O)c(OC)c2)cc1 | 3.62 µM
